Experimental data from the NIST ThermoML archive (doi:10.1016/j.tca.2007.04.012).

What was measured:
[1] = excess molar enthalpy (molar enthalpy of mixing); xn = mol fraction of the nth substance listed; conditions: 298.15 K, 101 kPa, Liquid, Flow calorimetry
[2] = xn = mol fraction of the nth substance listed; conditions: 298.15 K, 101 kPa, Liquid, Vibrating tube method
[3] = 298.15 K; 101.33 kPa; Liquid; Vibrating tube method

OCC(F)(F)F [2,2,2-trifluoroethanol] + CCCO
Conditions | excess molar enthalpy [kcal/mol] | mass density [kg/m3]
[1], x1 = 0.0054 | -0.00299 | –
[1], x1 = 0.0092 | -0.00578 | –
[1], x1 = 0.02045 | -0.0111 | –
[1], x1 = 0.03258 | -0.0163 | –
[1], x1 = 0.04077 | -0.0215 | –
[1], x1 = 0.051 | -0.026 | –
[1], x1 = 0.1013 | -0.0439 | –
[1], x1 = 0.2013 | -0.0642 | –
[1], x1 = 0.3023 | -0.0721 | –
[1], x1 = 0.4041 | -0.073 | –
[1], x1 = 0.4962 | -0.0645 | –
[1], x1 = 0.5974 | -0.0539 | –
[1], x1 = 0.6998 | -0.0417 | –
[1], x1 = 0.7987 | -0.0275 | –
[1], x1 = 0.9003 | -0.0137 | –
[1], x1 = 0.9108 | -0.0123 | –
[1], x1 = 0.9211 | -0.011 | –
[1], x1 = 0.9333 | -0.00978 | –
[1], x1 = 0.9409 | -0.00832 | –
[1], x1 = 0.9486 | -0.00703 | –
[1], x1 = 0.9577 | -0.00578 | –
[1], x1 = 0.9694 | -0.00409 | –
[1], x1 = 0.9839 | -0.00258 | –
[1], x1 = 0.9916 | -0.00108 | –
[1], x1 = 0.9961 | -0.000406 | –
[2], x1 = 0.00607 | – | 802.48
[2], x1 = 0.01063 | – | 804.92
[2], x1 = 0.02216 | – | 810.94
[2], x1 = 0.03141 | – | 815.81
[2], x1 = 0.1032 | – | 853.69
[2], x1 = 0.2022 | – | 906.48
[2], x1 = 0.3118 | – | 965.59
[2], x1 = 0.408 | – | 1018.5
[2], x1 = 0.5085 | – | 1075.13
[2], x1 = 0.6057 | – | 1131.49
[2], x1 = 0.7074 | – | 1192.38
[2], x1 = 0.8029 | – | 1251.85
[2], x1 = 0.9023 | – | 1316.56
[2], x1 = 0.9671 | – | 1360.54
[2], x1 = 0.9785 | – | 1368.42
[2], x1 = 0.9898 | – | 1376.24
[2], x1 = 0.9948 | – | 1379.83
[2], x1 = 1 | – | 1383.41

CCO [ethanol] + OCC(F)(F)F
Conditions | mass density [kg/m3]
[2], x2 = 0 | 784.83

OCC(F)(F)F [2,2,2-trifluoroethanol]
Conditions | mass density [kg/m3]
[3] | 1383.41

CCCO [propan-1-ol] + OCC(F)(F)F
Conditions | mass density [kg/m3]
[2], x2 = 0 | 799.3

OCC(F)(F)F [2,2,2-trifluoroethanol] + CCO
Conditions | excess molar enthalpy [kcal/mol] | mass density [kg/m3]
[1], x1 = 0.00586 | -0.00471 | –
[1], x1 = 0.0106 | -0.00946 | –
[1], x1 = 0.02013 | -0.0193 | –
[1], x1 = 0.03032 | -0.0283 | –
[1], x1 = 0.03992 | -0.0369 | –
[1], x1 = 0.04851 | -0.0448 | –
[1], x1 = 0.06244 | -0.0517 | –
[1], x1 = 0.07146 | -0.0594 | –
[1], x1 = 0.08127 | -0.0666 | –
[1], x1 = 0.09052 | -0.0739 | –
[1], x1 = 0.09891 | -0.0797 | –
[1], x1 = 0.199 | -0.1256 | –
[1], x1 = 0.2992 | -0.1503 | –
[1], x1 = 0.3995 | -0.1603 | –
[1], x1 = 0.5039 | -0.157 | –
[1], x1 = 0.6029 | -0.1387 | –
[1], x1 = 0.7014 | -0.1179 | –
[1], x1 = 0.7964 | -0.08435 | –
[1], x1 = 0.8945 | -0.0468 | –
[1], x1 = 0.9072 | -0.0426 | –
[1], x1 = 0.916 | -0.0381 | –
[1], x1 = 0.9278 | -0.0345 | –
[1], x1 = 0.9389 | -0.0293 | –
[1], x1 = 0.9516 | -0.024 | –
[1], x1 = 0.9618 | -0.0199 | –
[1], x1 = 0.9729 | -0.0139 | –
[1], x1 = 0.9826 | -0.00901 | –
[1], x1 = 0.992 | -0.00356 | –
[1], x1 = 0.9988 | -0.000908 | –
[2], x1 = 0.00449 | – | 788
[2], x1 = 0.00898 | – | 791.1
[2], x1 = 0.02012 | – | 798.87
[2], x1 = 0.02992 | – | 805.61
[2], x1 = 0.04022 | – | 812.7
[2], x1 = 0.05208 | – | 820.82
[2], x1 = 0.1002 | – | 853.17
[2], x1 = 0.2003 | – | 918.54
[2], x1 = 0.3001 | – | 981.36
[2], x1 = 0.3999 | – | 1042.13
[2], x1 = 0.5003 | – | 1101.6
[2], x1 = 0.6012 | – | 1160.07
[2], x1 = 0.7025 | – | 1217.72
[2], x1 = 0.7851 | – | 1264.15
[2], x1 = 0.9109 | – | 1334.11
[2], x1 = 0.92 | – | 1339.16
[2], x1 = 0.9299 | – | 1344.65
[2], x1 = 0.9497 | – | 1355.58
[2], x1 = 0.9597 | – | 1361.14
[2], x1 = 0.9697 | – | 1366.65
[2], x1 = 0.9798 | – | 1372.26
[2], x1 = 0.9897 | – | 1377.67
[2], x1 = 1 | – | 1383.41
